Calls of active or inactive are those of the source. The rule behind the calls is not given here.
Columns and labels:
[1] = Antioxidant activity assessed as trolox equivalent of ORAC radical scavenging activity by ORAC-FL assay relative to trolox; format: functional
[2] = biological target: Amyloid-beta precursor protein (Homo sapiens) (UniProt P05067); experiment: Inhibition of amyloid beta (1 to 42) (unknown origin) self induced aggregation at 25 uM by ThT fluorescence assay relative to control
HT-22 [3] = experiment: Neuroprotective activity against amyloid beta (1 to 42) induced cell injury in mouse HT-22 cells assessed as cell viability at 50 uM incubated for 24 hrs by MTT assay; format: functional, cell-based
HT-22 [4] = experiment: Neuroprotective activity against amyloid beta (1 to 42)-induced injury in mouse HT-22 cells assessed as reversal of reduction in cell numbers at 10 uM measured after 24 hrs by MTT assay; format: functional, cell-based
HT-22 [5] = experiment: Neuroprotective activity against amyloid beta (1 to 42)-induced injury in mouse HT-22 cells assessed as reversal of reduced cell synapse length at 10 uM measured after 24 hrs […]; format: functional, cell-based
BV-2 [6] = experiment: Cytotoxicity against mouse BV-2 cells at upto 10 uM measured after 24 hrs by MTT assay; format: toxicity, cell-based; conditions: bv-2, 24 h
BV-2 [7] = experiment: Cytotoxicity against LPS-induced mouse BV-2 cells assessed as cell viability at 0.5 to 10 uM incubated for 24 hrs by MTT assay; format: toxicity, cell-based; conditions: bv-2, 24 h, dose 0.5-10 µM
BV-2 [8] = experiment: Antineuroinflammatory activity in LPS-induced mouse BV-2 cells assessed as inhibition of NO release at 0.5 uM preincubated for 30 mins followed by LPS stimulation and measured after 24 hrs relative to control; format: functional; parameters: scale not given: the % may be the effect or the level left; conditions: time 24.5 hrs
BV-2 [9] = experiment: Antineuroinflammatory activity in LPS-induced mouse BV-2 cells assessed as inhibition of NO release at 2.5 uM preincubated for 30 mins followed by LPS stimulation and measured after 24 hrs relative to control; format: functional; parameters: scale not given: the % may be the effect or the level left; conditions: time 24.5 hrs
BV-2 [10] = experiment: Antineuroinflammatory activity in LPS-induced mouse BV-2 cells assessed as inhibition of NO release at 10 uM preincubated for 30 mins followed by LPS stimulation and measured after 24 hrs relative to control; format: functional; parameters: scale not given: the % may be the effect or the level left; conditions: time 24.5 hrs
BV-2 [11] = experiment: Antineuroinflammatory activity in LPS-induced mouse BV-2 cells assessed as inhibition of TNF-alpha release at 0.5 uM preincubated for 30 mins followed by LPS stimulation and measured after 24 hrs relative to control; format: functional; parameters: scale not given: the % may be the effect or the level left; conditions: time 24.5 hrs
BV-2 [12] = experiment: Antineuroinflammatory activity in LPS-induced mouse BV-2 cells assessed as inhibition of TNF-alpha release at 2.5 uM preincubated for 30 mins followed by LPS stimulation and measured after 24 hrs relative to control; format: functional; parameters: scale not given: the % may be the effect or the level left; conditions: time 24.5 hrs
BV-2 [13] = experiment: Antineuroinflammatory activity in LPS-induced mouse BV-2 cells assessed as inhibition of TNF-alpha release at 10 uM preincubated for 30 mins followed by LPS stimulation and measured after 24 hrs relative to control; format: functional; parameters: scale not given: the % may be the effect or the level left; conditions: time 24.5 hrs
BV-2 [14] = experiment: Antineuroinflammatory activity in LPS-induced mouse BV-2 cells assessed as inhibition of IL-1 beta release at 0.5 uM preincubated for 30 mins followed by LPS stimulation and measured after 24 hrs relative to control; format: functional; parameters: scale not given: the % may be the effect or the level left; conditions: time 24.5 hrs
BV-2 [15] = experiment: Antineuroinflammatory activity in LPS-induced mouse BV-2 cells assessed as inhibition of IL-1 beta release at 2.5 uM preincubated for 30 mins followed by LPS stimulation and measured after 24 hrs relative to control; format: functional; parameters: scale not given: the % may be the effect or the level left; conditions: time 24.5 hrs
BV-2 [16] = experiment: Antineuroinflammatory activity in LPS-induced mouse BV-2 cells assessed as inhibition of IL-1 beta release at 10 uM preincubated for 30 mins followed by LPS stimulation and measured after 24 hrs relative to control; format: functional; parameters: scale not given: the % may be the effect or the level left; conditions: time 24.5 hrs
[17] = biological target: Amyloid-beta precursor protein (Homo sapiens) (UniProt P05067); experiment: Inhibition of Cu2+ induced amyloid beta (1 to 42)(unknown origin) fibrillation at 25 uM by ThT fluorescence assay relative to control
[18] = biological target: Amyloid-beta precursor protein (Homo sapiens) (UniProt P05067); experiment: Disaggregation of self-induced amyloid beta (1 to 42) (unknown origin) fibrils at 25 uM by ThT fluorescence assay relative to control

Chain of Amyloid-beta precursor protein (Homo sapiens) (P05067 whole entry): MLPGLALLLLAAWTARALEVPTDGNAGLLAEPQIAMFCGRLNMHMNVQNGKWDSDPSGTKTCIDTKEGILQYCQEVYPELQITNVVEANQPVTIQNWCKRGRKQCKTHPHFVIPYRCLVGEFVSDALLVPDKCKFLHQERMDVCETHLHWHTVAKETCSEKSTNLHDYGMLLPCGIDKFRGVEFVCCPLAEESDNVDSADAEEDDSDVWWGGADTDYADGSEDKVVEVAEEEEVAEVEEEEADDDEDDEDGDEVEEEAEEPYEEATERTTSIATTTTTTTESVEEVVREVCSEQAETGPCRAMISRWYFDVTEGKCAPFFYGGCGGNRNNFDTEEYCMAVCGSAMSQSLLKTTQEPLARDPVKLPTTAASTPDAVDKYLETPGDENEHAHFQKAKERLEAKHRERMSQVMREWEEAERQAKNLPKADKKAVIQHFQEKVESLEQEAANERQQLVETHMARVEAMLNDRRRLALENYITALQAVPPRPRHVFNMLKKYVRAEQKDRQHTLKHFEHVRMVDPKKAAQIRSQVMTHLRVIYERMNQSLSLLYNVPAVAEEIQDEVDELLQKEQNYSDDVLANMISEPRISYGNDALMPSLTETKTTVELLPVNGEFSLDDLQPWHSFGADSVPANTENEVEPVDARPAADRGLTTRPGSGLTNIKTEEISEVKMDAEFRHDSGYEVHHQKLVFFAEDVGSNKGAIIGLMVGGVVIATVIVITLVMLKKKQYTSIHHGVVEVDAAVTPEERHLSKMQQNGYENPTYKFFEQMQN

SMILES	inhibition [2] [%]	Activity [1]	other results
CCCCCCC1OC(=O)c2c1cc(OC)c(OC)c2OC (stereo not drawn)	25.2	0.68	–
C=CCCCCC1OC(=O)c2c1cc(OC)c(OC)c2O (stereo not drawn)	19.2	1.77	–
CCCCC1OC(=O)c2c1cc(OC)c(OC)c2OC (stereo not drawn)	15.9	0.4	–
C=CC(C)(C)C1OC(=O)c2c1cc(OC)c(OC)c2O (stereo not drawn)	37.1	1.94	–
C=CC(C)(C)C1OC(=O)c2c1cc(OC)c(OC)c2OC (stereo not drawn)	15	0.45	–
CCCCC1OC(=O)c2ccccc21 (racemic) [RAC-3-N-BUTYLPHTHALIDE]	–	0.23	Activity (HT-22 [3]): Active; Activity (HT-22 [4]): inactive; Activity (HT-22 [5]): inactive; Activity (BV-2 [6]): Non-Toxic; Activity (BV-2 [7]): Non-Toxic; Activity (BV-2 [8]): 13.3%; Activity (BV-2 [9]): 23.2%; Activity (BV-2 [10]): 45.5%; Activity (BV-2 [11]): 12.6%; Activity (BV-2 [12]): 24%; Activity (BV-2 [13]): 40.6%; Activity (BV-2 [14]): 11.5%; Activity (BV-2 [15]): 21.1%; Activity (BV-2 [16]): 31.3%
C=CCCCC1OC(=O)c2c1cc(OC)c(OC)c2OC (stereo not drawn)	19.2	0.71	–
C=CCCCCCC1OC(=O)c2c1cc(OC)c(OC)c2OC (stereo not drawn)	19.2	0.46	–
C=CCC1OC(=O)c2c1cc(OC)c(OC)c2OC (stereo not drawn)	25.4	0.41	–
C=CCCC1OC(=O)c2c1cc(OC)c(OC)c2OC (stereo not drawn)	24.3	0.53	–
CCCC1OC(=O)c2c1cc(OC)c(OC)c2OC (stereo not drawn)	21.8	0.39	–
C=CCC1OC(=O)c2c1cc(OC)c(OC)c2O (stereo not drawn)	< 5	1.71	–
C=CCCCCCC1OC(=O)c2c1cc(OC)c(OC)c2O (stereo not drawn)	< 5	1.81	–
CCCCCC1OC(=O)c2c1cc(OC)c(OC)c2OC (stereo not drawn)	19.4	0.47	–
CCCCCCCC1OC(=O)c2c1cc(OC)c(OC)c2OC (stereo not drawn)	16.5	0.62	–
C=CCCCCC1OC(=O)c2c1cc(OC)c(OC)c2OC (stereo not drawn)	17.6	0.61	–
C=CCCC1OC(=O)c2c1cc(OC)c(OC)c2O (stereo not drawn)	< 5	1.93	–
C=CCCCC1OC(=O)c2c1cc(OC)c(OC)c2O (stereo not drawn)	24.6	1.68	–

The next lines start with results.

inhibition [2] [%]	SMILES	Activity [1]	other results
27.3	CCCC1OC(=O)c2c1cc(OC)c(OC)c2O (stereo not drawn)	1.21	–
26.4	CCCCCCCC1OC(=O)c2c1cc(OC)c(OC)c2O (stereo not drawn)	1.34	–
25.2	CCCCCCC1OC(=O)c2c1cc(OC)c(OC)c2O (stereo not drawn)	1.44	–
19.4	CCCCCC1OC(=O)c2c1cc(OC)c(O)c2OC (stereo not drawn)	2.08	–
78.8	CCCCC1OC(=O)c2c1cc(OC)c(O)c2O (stereo not drawn)	2.36	inhibition [17]: 28.5%; Activity [18]: 39.5%
23.4	CCCCC1OC(=O)c2c1cc(OC)c(O)c2OC (stereo not drawn)	1.59	–
29.1	CCCCCCC1OC(=O)c2c1cc(OC)c(O)c2OC (stereo not drawn)	1.6	–
35.1	CCCCCC1OC(=O)c2c1cc(OC)c(OC)c2O (stereo not drawn)	1.36	–
30.2	CCCCC1OC(=O)c2c1cc(OC)c(OC)c2O (stereo not drawn)	1.27	–
83.3	CCCCCCC1OC(=O)c2c1cc(OC)c(O)c2O (stereo not drawn)	2.5	inhibition [17]: 30.5%; Activity [18]: 32.3%

From ChEMBL document CHEMBL5505960, “Synthesis and evaluation of butylphthalide-scutellarein hybrids as multifunctional agents for the treatment of Alzheimer's disease” (Eur J Med Chem, 2024)
